In patent publication US7534768B2, “Treatment of DNA viral infections” (Henderson Morely Research and Development Ltd., priority 2000, dated 2009):
Like-named read-outs stand apart in the source and are kept apart here.

How the values were obtained:
[1] = system: type 2 herpes simplex strain 3345; experiment: Inhibition of hsv2 replication in African green monkey kidney cells (Example 3); type: cell-based, herpes simplex virus; settings: for inhibition at 15 µg/mL: Digoxin 15 mcg/ml; for inhibition at 15 µg/mL / inhibition at 30 µg/mL: Frusemide 0 mg/ml; for inhibition at 30 µg/mL: Digoxin 30 mcg/ml; for Inhibition of virus replication / inhibition at 500 µg/mL: Digoxin 0 mcg/ml; for Inhibition of virus replication: Frusemide 1.0 mg.ml; for inhibition at 500 µg/mL: Frusemide 0.5 mg/ml, read-out: Inhibition of virus replication
From the text: The compositions were applied to different types of vero cells (African green monkey kidney cells and […]) and infected with type 2 herpes simplex virus (strains 3345 and 180) at low, intermediate, and high multiplicities of infection (M0I). Inhibition of virus replication was scored on the scale:
The following results were obtained using African green monkey kidney cells and type 2 herpes simplex strain 3345: […]

[2] = cited from earlier work
[3] = system: Type 1 herpes simplex strain HFEM; experiment: Inhibition of hsv1 in infected Vero cells (Example 1); type: cell-based, herpes simplex virus; settings: Human alphaherpesvirus 1, Vero; for inhibition at 1000 µg/mL: frusemide 1 mg/ml, digoxin 30 mcg/ml
Method: . Culture and assay methods follow those described by Lennette and Schmidt (1979) for herpes simplex virus and Vero cells with minor modifications.
Type 1 herpes simplex strain HFEM is a derivative of the Rockerfeller strain HF (Wildy 1955), and Type 2 herpes simplex strain 3345, a penile isolate (Skinner et al 1977) were used as prototype strains. These prototypes were stored at −80° C. until needed.
African Green Monkey kidney cells (vero) were obtained from the National Institute of Biological Standards and Control UK and were used as the only cell line for all experiments in the examples.
Cells and viruses were maintained on Glasgows modified medium supplemented with 10% foetal bovine serum.

[4] = Human alphaherpesvirus 2, read-out: Inhibition of virus replication, HIGH M0I HSV2
[5] = Human alphaherpesvirus 2, read-out: Inhibition of virus replication, INT. M0I HSV2
[6] = Human alphaherpesvirus 2, read-out: Inhibition of virus replication, LOW M0I HSV2

## C[C@H]1O[C@@H](O[C@H]2[C@@H](O)C[C@H](O[C@H]3[C@@H](O)C[C@H](O[C@H]4CC[C@@]5(C)[C@H](CC[C@@H]6[C@@H]5C[C@@H](O)[C@]5(C)[C@@H](C7=CC(=O)OC7)CC[C@]65O)C4)O[C@@H]3C)O[C@@H]2C)C[C@H](O)[C@@H]1O [digoxin]
[1]; [4]
  inhibition at 15 µg/mL: 0%
  inhibition at 30 µg/mL: 0%
[1]; [5]
  inhibition at 15 µg/mL: 0%
  inhibition at 30 µg/mL: 20%
[1]; [6]
  inhibition at 15 µg/mL: 0%
  inhibition at 30 µg/mL: 60%
[2]; in diluted (50%) alcohol and in chloroform
  solubility: slightly soluble
[2]; in pyridine
  solubility: freely soluble
[2]; in water and in ether
  solubility: practically insoluble
[3]; read-out: Inhibition of hsv1, Multiplicity of infection High, frusemide 1 mg/ml, digoxin 30 mcg/ml
  inhibition at 30 µg/mL: 0%
[3]; read-out: Inhibition of hsv1, Multiplicity of infection Low, frusemide 1 mg/ml, digoxin 30 mcg/ml
  inhibition at 30 µg/mL: 40%
[3]; read-out: Inhibition of hsv1, Multiplicity of infection Medium, frusemide 1 mg/ml, digoxin 30 mcg/ml
  inhibition at 30 µg/mL: 20%

## NS(=O)(=O)c1cc(C(=O)O)c(NCc2ccco2)cc1Cl [frusemide, 4-chloro-N-furfuryl-5-sulfamoylanthranilic acid]
[1]; HIGH M0I HSV2
  Inhibition of virus replication: ++ (40% inhibition)
[1]; Human alphaherpesvirus 2, HIGH M0I HSV2
  inhibition at 500 µg/mL: 0%
[1]; Human alphaherpesvirus 2, INT. M0I HSV2
  inhibition at 500 µg/mL: 20%
[1]; Human alphaherpesvirus 2, LOW M0I HSV2
  inhibition at 500 µg/mL: 20%
[1]; INT. M0I HSV2
  Inhibition of virus replication: +++ (60% inhibition)
[1]; LOW M0I HSV2
  Inhibition of virus replication: +++ (60% inhibition)
[3]; Multiplicity of infection High
  inhibition at 1000 µg/mL: 0%
[3]; Multiplicity of infection Low
  inhibition at 1000 µg/mL: 20%
[3]; Multiplicity of infection Medium
  inhibition at 1000 µg/mL: 20%
